Reference: US20150307520A1, “NOVEL HETEROARYL AND HETEROCYCLE COMPOUNDS, COMPOSITIONS AND METHODS THEREOF” (HUTCHISON MEDIPHARMA LIMITED, priority 2012, published 2015)

Tests used:
Type in all cases: biochemical
p110γ = p110γ (Homo sapiens, UniProt P48736); experiment: Transcreener KINASE Assay, kinase inhibition of p110γ; details: for PI3Kγ IH % @ 1 uM: 1 uM test compound; for IC50: read-out: PI3Kγ IC50
How it was run: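 ADP-detecting fluorescence polarization immunoassay run as two-step endpoint: kinase reaction for 80 min, detection for 60 min, both at room temperature. Enzymes are recombinant p110 isoforms with p85α, except p110γ. IC50s derived from fitted inhibition curves.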

p110β/p85α = p110β/p85α (Homo sapiens, UniProt P42338); experiment: Transcreener KINASE Assay, kinase inhibition of p110β/p85α; details: for PI3Kβ IH % @ 1 uM: 1 uM test compound; for IC50: read-out: PI3Kβ IC50
How it was run: (§1)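 Recombinant PI3K/p85α heterodimers were incubated with compound (2% DMSO final) for 80 min at room temperature in 50 mM HEPES, 100 mM NaCl, 1 mM EGTA, 0.03% CHAPS, 3 mM MgCl2, 1 mM DTT, with substrate added as a 30 uM PIP2/10 uM ATP mix. ADP was detected by competitive fluorescence polarization immunoassay.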

p110δ/p85α = p110δ/p85α (Homo sapiens, UniProt O00329); experiment: Transcreener KINASE Assay, kinase inhibition of p110δ/p85α; details: for PI3Kδ IH % @ 1 uM: 1 uM test compound; for IC50: read-out: PI3Kδ IC50
How it was run: as §1

p110β/p85α, sequence (P42338 whole entry): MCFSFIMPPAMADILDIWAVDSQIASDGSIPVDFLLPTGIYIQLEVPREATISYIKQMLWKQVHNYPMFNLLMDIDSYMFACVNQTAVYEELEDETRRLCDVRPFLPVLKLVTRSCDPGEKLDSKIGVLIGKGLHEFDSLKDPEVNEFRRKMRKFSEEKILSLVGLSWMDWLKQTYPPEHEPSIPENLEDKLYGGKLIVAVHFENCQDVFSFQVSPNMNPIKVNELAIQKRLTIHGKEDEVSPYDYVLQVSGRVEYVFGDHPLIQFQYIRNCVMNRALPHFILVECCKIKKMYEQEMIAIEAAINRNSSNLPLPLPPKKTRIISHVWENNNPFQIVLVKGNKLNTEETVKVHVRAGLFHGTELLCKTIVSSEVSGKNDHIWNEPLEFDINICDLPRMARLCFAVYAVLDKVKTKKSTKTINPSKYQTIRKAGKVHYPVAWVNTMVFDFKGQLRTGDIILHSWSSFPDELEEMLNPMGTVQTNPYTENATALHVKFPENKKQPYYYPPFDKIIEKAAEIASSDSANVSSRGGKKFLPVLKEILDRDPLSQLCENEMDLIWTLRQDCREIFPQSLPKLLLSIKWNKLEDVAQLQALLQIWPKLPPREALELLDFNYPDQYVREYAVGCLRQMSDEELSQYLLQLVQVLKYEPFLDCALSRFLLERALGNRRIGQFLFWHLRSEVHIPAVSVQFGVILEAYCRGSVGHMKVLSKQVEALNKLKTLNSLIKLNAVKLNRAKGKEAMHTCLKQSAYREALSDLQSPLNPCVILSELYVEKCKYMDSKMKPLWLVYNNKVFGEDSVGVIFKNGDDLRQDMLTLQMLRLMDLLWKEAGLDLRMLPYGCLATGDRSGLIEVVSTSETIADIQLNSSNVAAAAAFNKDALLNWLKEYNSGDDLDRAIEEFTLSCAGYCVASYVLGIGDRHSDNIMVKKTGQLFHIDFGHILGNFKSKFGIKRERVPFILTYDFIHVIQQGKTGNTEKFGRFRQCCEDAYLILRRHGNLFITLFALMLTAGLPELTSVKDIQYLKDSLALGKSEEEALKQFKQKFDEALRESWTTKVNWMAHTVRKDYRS
p110β/p85α, sequence (P27986 2-724 partner): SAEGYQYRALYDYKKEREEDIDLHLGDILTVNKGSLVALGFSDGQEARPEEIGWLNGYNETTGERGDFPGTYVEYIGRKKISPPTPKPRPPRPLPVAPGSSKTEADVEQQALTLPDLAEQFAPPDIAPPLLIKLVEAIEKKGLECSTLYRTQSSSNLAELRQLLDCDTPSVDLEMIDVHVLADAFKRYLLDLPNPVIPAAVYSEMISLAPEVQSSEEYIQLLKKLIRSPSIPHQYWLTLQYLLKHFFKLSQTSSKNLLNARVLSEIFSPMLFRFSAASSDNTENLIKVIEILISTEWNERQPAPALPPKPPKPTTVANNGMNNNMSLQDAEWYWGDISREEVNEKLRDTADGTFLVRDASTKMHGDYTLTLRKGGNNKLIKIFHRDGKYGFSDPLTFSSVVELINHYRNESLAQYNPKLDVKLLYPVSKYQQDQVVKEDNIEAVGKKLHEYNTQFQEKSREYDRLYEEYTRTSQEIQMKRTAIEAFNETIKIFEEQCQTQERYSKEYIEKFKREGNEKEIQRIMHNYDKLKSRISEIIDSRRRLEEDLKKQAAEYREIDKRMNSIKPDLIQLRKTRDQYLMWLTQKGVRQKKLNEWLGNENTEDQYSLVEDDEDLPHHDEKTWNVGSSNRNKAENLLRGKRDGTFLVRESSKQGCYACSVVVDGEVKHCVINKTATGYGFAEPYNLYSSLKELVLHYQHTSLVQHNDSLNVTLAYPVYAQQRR
p110δ/p85α, sequence (O00329 whole entry): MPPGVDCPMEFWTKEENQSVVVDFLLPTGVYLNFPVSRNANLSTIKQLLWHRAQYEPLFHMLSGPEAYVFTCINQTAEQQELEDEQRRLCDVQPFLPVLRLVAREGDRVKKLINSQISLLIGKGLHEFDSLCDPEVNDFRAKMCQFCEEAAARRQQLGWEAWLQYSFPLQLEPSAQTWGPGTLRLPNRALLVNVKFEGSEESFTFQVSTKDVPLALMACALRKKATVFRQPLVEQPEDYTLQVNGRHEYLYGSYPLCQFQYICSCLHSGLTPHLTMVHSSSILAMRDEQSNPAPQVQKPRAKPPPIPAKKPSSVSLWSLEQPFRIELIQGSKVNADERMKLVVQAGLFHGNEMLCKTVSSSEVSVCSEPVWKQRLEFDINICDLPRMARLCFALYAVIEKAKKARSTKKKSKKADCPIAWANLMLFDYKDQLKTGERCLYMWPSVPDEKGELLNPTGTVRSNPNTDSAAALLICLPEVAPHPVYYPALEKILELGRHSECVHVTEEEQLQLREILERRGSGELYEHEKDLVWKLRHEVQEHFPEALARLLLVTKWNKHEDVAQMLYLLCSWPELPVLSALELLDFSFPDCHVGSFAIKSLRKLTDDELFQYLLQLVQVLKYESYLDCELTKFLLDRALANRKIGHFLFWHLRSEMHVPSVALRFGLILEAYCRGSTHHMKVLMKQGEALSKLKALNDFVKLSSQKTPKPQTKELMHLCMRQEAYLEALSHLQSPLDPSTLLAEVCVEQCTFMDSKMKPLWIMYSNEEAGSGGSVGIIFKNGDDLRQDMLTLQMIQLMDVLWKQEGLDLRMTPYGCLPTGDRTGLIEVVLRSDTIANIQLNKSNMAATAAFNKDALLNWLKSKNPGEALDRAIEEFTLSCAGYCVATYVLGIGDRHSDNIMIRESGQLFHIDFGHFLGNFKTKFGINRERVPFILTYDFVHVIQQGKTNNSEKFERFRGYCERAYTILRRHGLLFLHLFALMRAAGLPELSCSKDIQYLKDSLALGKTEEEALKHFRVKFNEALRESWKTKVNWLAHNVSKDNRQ
p110δ/p85α, sequence (P27986 whole entry partner): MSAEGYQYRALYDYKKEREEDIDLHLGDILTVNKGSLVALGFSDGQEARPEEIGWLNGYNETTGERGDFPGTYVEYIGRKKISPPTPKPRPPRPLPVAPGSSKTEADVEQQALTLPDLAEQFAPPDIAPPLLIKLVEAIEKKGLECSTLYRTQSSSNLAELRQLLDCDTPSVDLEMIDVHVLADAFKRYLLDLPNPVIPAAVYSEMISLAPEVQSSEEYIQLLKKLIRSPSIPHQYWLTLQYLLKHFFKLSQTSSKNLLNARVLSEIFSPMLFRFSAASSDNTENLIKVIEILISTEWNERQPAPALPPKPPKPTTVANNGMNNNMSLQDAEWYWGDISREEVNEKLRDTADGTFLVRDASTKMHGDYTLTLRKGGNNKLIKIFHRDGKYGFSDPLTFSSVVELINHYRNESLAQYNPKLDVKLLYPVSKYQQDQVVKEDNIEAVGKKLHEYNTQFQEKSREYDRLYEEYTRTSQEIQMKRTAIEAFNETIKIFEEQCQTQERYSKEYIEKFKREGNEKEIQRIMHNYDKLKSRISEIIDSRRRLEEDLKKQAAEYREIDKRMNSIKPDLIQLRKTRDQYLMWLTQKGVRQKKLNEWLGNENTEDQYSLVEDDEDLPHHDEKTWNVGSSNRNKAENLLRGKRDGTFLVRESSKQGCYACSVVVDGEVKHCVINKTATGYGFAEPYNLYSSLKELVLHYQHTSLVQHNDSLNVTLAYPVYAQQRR
p110γ, sequence (P48736 whole entry, canonical isoform): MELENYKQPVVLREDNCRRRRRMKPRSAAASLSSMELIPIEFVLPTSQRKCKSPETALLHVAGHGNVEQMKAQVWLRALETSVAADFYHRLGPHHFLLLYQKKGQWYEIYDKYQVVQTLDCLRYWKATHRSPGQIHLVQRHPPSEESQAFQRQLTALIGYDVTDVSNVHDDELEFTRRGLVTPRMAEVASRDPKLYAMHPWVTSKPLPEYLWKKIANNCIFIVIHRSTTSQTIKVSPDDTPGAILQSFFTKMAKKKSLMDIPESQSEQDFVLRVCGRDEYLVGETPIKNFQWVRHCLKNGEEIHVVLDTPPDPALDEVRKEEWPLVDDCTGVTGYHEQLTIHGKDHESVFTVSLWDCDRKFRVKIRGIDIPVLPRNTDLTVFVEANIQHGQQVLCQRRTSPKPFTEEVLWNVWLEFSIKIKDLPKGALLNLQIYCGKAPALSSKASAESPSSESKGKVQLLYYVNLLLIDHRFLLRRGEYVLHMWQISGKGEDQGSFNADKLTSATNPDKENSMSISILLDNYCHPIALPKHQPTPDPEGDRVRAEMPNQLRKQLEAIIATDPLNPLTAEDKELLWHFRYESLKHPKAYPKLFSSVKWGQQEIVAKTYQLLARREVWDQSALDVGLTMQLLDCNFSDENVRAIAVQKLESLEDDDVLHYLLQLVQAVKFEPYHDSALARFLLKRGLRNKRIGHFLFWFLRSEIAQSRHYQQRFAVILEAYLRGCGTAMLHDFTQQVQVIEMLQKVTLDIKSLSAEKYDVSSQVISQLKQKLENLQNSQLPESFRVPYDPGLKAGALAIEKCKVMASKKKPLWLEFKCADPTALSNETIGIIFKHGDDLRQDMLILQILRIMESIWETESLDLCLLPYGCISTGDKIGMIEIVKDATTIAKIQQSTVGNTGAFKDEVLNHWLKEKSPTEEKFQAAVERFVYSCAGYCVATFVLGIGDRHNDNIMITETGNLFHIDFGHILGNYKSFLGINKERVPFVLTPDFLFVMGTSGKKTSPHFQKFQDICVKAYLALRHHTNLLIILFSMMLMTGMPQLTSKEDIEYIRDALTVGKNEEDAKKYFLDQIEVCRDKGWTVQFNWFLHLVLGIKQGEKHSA

## CC(Nc1ncnc2[nH]cnc12)c1cn2ccc(-c3cnn(C)c3)c2c(=O)n1-c1ccccc1 (centres unmarked) [Compound 93, 3-(1-(9H-purin-6-ylamino)ethyl)-8-(1-methyl-1H-pyrazol-4-yl)-2-phenylpyrrolo[1,2-a]pyrazin-1(2H)-one]
p110γ
  PI3Kγ IH % @ 1 uM: 53.7%
p110β/p85α
  PI3Kβ IH % @ 1 uM: 5.4%
p110δ/p85α
  PI3Kδ IH % @ 1 uM: 77.6%
  IC50: 0.244 µM

## NC(=O)c1c[nH]c2ncnc(N3CCC[C@H]3c3nn4ccc(Cl)c4c(=O)n3-c3ccccc3)c12 [Compound 95]
p110γ
  PI3Kγ IH % @ 1 uM: >100%
  IC50: 0.007 µM
p110β/p85α
  PI3Kβ IH % @ 1 uM: 82.0%
  IC50: 0.036 µM
p110δ/p85α
  PI3Kδ IH % @ 1 uM: 97.6%
  IC50: 0.001 µM

## CNC(=O)c1c[nH]c2ncnc(N3CCC[C@H]3c3nn4ccc(Cl)c4c(=O)n3-c3ccccc3)c12 [Compound 96]
p110γ
  PI3Kγ IH % @ 1 uM: 94.3%
  IC50: 0.071 µM
p110β/p85α
  PI3Kβ IH % @ 1 uM: 73.4%
  IC50: 0.169 µM
p110δ/p85α
  PI3Kδ IH % @ 1 uM: 97.3%
  IC50: 0.024 µM

## CN(C)C(=O)c1c[nH]c2ncnc(N3CCC[C@H]3c3nn4ccc(Cl)c4c(=O)n3-c3ccccc3)c12 [Compound 97]
p110γ
  PI3Kγ IH % @ 1 uM: 84.6%
  IC50: 0.144 µM
p110β/p85α
  PI3Kβ IH % @ 1 uM: 45.1%
p110δ/p85α
  PI3Kδ IH % @ 1 uM: 55.1%

## COc1ncc(-c2c[nH]c3ncnc(N4CC[C@H]4c4nn5ccc(Cl)c5c(=O)n4-c4ccccc4)c23)cn1 [Compound 100]
p110γ
  PI3Kγ IH % @ 1 uM: >100%
  IC50: 0.005 µM
p110β/p85α
  PI3Kβ IH % @ 1 uM: 89.8%
  IC50: 0.006 µM
p110δ/p85α
  PI3Kδ IH % @ 1 uM: >100%
  IC50: 0.001 µM

## COc1ccc(-c2c[nH]c3ncnc(N4CC[C@H]4c4nn5ccc(Cl)c5c(=O)n4-c4ccccc4)c23)cn1 [Compound 102]
p110γ
  PI3Kγ IH % @ 1 uM: >100%
  IC50: 0.014 µM
p110β/p85α
  PI3Kβ IH % @ 1 uM: 92.3%
  IC50: 0.061 µM
p110δ/p85α
  PI3Kδ IH % @ 1 uM: >100%
  IC50: 0.001 µM

## N#Cc1ncc(-c2c[nH]c3ncnc(N4CC[C@H]4c4nn5ccc(Cl)c5c(=O)n4-c4ccccc4)c23)cn1 [Compound 103]
p110γ
  PI3Kγ IH % @ 1 uM: 98.2%
  IC50: 0.019 µM
p110β/p85α
  PI3Kβ IH % @ 1 uM: >100%
  IC50: 0.046 µM
p110δ/p85α
  PI3Kδ IH % @ 1 uM: 99.7%
  IC50: 0.001 µM

## Nc1ncc(-c2c[nH]c3ncnc(N4CC[C@H]4c4nn5ccc(Cl)c5c(=O)n4-c4ccccc4)c23)cn1 [Compound 104]
p110γ
  PI3Kγ IH % @ 1 uM: >100%
  IC50: 0.003 µM
p110β/p85α
  PI3Kβ IH % @ 1 uM: >100%
  IC50: 0.017 µM
p110δ/p85α
  PI3Kδ IH % @ 1 uM: >100%

## C#Cc1ccn2nc([C@@H]3CCN3c3ncnc4[nH]cc(C#N)c34)n(-c3ccccc3)c(=O)c12 [Compound 105, (S)-4-(2-(5-ethynyl-4-oxo-3-phenyl-3,4-dihydropyrrolo[2,1-f][1,2,4]triazin-2-yl)azetidin-1-yl)-7H-pyrrolo[2,3-d]pyrimidine-5-carbonitrile]
p110γ
  PI3Kγ IH % @ 1 uM: 90.4%
  IC50: 0.08 µM
p110β/p85α
  PI3Kβ IH % @ 1 uM: 16.0%
p110δ/p85α
  PI3Kδ IH % @ 1 uM: 90.0%
  IC50: 0.015 µM

## CC(C)Cn1c([C@@H]2CCCN2c2ncnc3[nH]cc(C#N)c23)nn2c(F)ccc2c1=O [Compound 107, (S)-4-(2-(7-fluoro-3-isobutyl-4-oxo-3,4-dihydropyrrolo[2,1-f][1,2,4]triazin-2-yl)pyrrolidin-1-yl)-7H-pyrrolo[2,3-d]pyrimidine-5-carbonitrile]
p110γ
  PI3Kγ IH % @ 1 uM: 71.8%
  IC50: 0.153 µM
p110β/p85α
  PI3Kβ IH % @ 1 uM: 34.5%
p110δ/p85α
  PI3Kδ IH % @ 1 uM: 98.6%
  IC50: 0.005 µM

## COc1ccc(-c2c(N)ncnc2N2CC[C@H]2c2nn3ccc(Cl)c3c(=O)n2-c2ccccc2)cn1 [Compound 108, (S)-2-(1-(6-amino-5-(6-methoxypyridin-3-yl)pyrimidin-4-yl)azetidin-2-yl)-5-chloro-3-phenylpyrrolo[2,1-f][1,2,4]triazin-4(3H)-one]
p110γ
  PI3Kγ IH % @ 1 uM: 90.0%
p110β/p85α
  PI3Kβ IH % @ 1 uM: 26.9%
p110δ/p85α
  PI3Kδ IH % @ 1 uM: 75.9%

## COc1ccc(-c2n[nH]c3ncnc(N4CCC[C@H]4c4nn5ccc(Cl)c5c(=O)n4-c4ccccc4)c23)cn1 [Compound 109]
p110γ
  PI3Kγ IH % @ 1 uM: 98.3%
  IC50: 0.192 µM
p110β/p85α
  PI3Kβ IH % @ 1 uM: 61.0%
p110δ/p85α
  PI3Kδ IH % @ 1 uM: 99.8%
  IC50: 0.004 µM

## N#Cc1n[nH]c2ncnc(N3CCC[C@H]3c3nn4ccc(Cl)c4c(=O)n3-c3ccccc3)c12 [Compound 111, (S)-4-(2-(5-chloro-4-oxo-3-phenyl-3,4-dihydropyrrolo[2,1-f][1,2,4]triazin-2-yl)pyrrolidin-1-yl)-1H-pyrazolo[3,4-d]pyrimidine-3-carbonitrile]
p110γ
  PI3Kγ IH % @ 1 uM: 67.2%
p110β/p85α
  PI3Kβ IH % @ 1 uM: 39.0%
p110δ/p85α
  PI3Kδ IH % @ 1 uM: 93.9%
  IC50: 0.045 µM

## O=c1c2c(Cl)ccn2nc([C@@H]2CCN2c2nc(N3CCOCC3)nc3[nH]cnc23)n1-c1ccccc1 [Compound 114, (S)-5-chloro-2-(1-(2-morpholino-9H-purin-6-yl)azetidin-2-yl)-3-phenylpyrrolo[2,1-f][1,2,4]triazin-4(3H)-one]
p110γ
  PI3Kγ IH % @ 1 uM: 4.3%
p110β/p85α
  PI3Kβ IH % @ 1 uM: 86.4%
  IC50: 0.159 µM
p110δ/p85α
  PI3Kδ IH % @ 1 uM: 93.7%
  IC50: 0.027 µM

## CC(Nc1ncnc2[nH]cnc12)c1cc2ncc(Cl)n2c(=O)n1-c1ccccc1 (centres unmarked) [Compound 115, 7-(1-(9H-purin-6-ylamino)ethyl)-3-chloro-6-phenylimidazo[1,2-c]pyrimidin-5(6H)-one]
p110γ
  PI3Kγ IH % @ 1 uM: 91.7%
  IC50: 0.003 µM
p110β/p85α
  PI3Kβ IH % @ 1 uM: 80.2%
  IC50: 0.143 µM
p110δ/p85α
  PI3Kδ IH % @ 1 uM: >100%
  IC50: 0.002 µM

## CC(Nc1ncnc2[nH]cc(C#N)c12)c1cc2ncc(Cl)n2c(=O)n1-c1ccccc1 (centres unmarked) [Compound 116]
p110γ
  PI3Kγ IH % @ 1 uM: 96.9%
  IC50: 0.045 µM
p110β/p85α
  PI3Kβ IH % @ 1 uM: >100%
  IC50: 0.128 µM
p110δ/p85α
  PI3Kδ IH % @ 1 uM: >100%
  IC50: 0.005 µM

## CC(Nc1ncnc(N)c1C#N)c1cc2ncc(Cl)n2c(=O)n1-c1ccccc1 (centres unmarked) [Compound 117]
p110γ
  PI3Kγ IH % @ 1 uM: >100%
  IC50: 0.043 µM
p110β/p85α
  PI3Kβ IH % @ 1 uM: >100%
  IC50: 0.038 µM
p110δ/p85α
  PI3Kδ IH % @ 1 uM: >100%
  IC50: 0.005 µM

## CC(Nc1ncnc2[nH]cc(C#N)c12)c1cc2ncc(Cl)n2c(=O)n1-c1cccc(F)c1 (centres unmarked) [Compound 118]
p110γ
  PI3Kγ IH % @ 1 uM: 5.2%
p110β/p85α
  PI3Kβ IH % @ 1 uM: 19.1%
p110δ/p85α
  PI3Kδ IH % @ 1 uM: 77.5%
  IC50: 0.471 µM
